Where two headings read alike, the source gives them in different places.
Legend:
[1] = ADME solubility determination in PBS at pH 2.0 and pH 7.4; type: physicochemical; conditions: phosphate buffered saline, 25 °C, thermodynamic from solid
Summary of the method: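 Solubility was read by LC-MS/MS on centrifuged supernatants, calibrated to a known-concentration standard and corrected for dilution. Compound, dried down from 10 mM DMSO stock, was equilibrated 24 h at 25° C with shaking in PBS at pH 2.0 or pH 7.4.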

[2] = Liver microsomal metabolic stability, human liver microsomes (HLM); conditions: human, liver microsomes
[3] = test system: Ub-PCNA levels in the nucleus of ES2 cells (USP1 activity); experiment: ES2 Ub-PCNA immunofluorescence (IF) assay; type: cell-based; conditions: Homo sapiens, ES-2; ES2 cells, 3 hours, Ub-PCNA immunofluorescence; read-out: USP1 IC50 (Ub-PCNA)
Summary of the method: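 AC50 derived from percent Ub-PCNA-positive nuclei, positivity set by a 95% cutoff from untreated-well intensities. Readout by imaging immunofluorescence (anti-Ub-PCNA, DAPI nuclear mask) after methanol fixation. Compound exposure: 3 h at 37° C, 0.3% DMSO final, on cells plated overnight.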

[4] = Liver microsomal metabolic stability, rat liver microsomes (RLM); conditions: rat, liver microsomes, t1/2 (min) in RLM, 1 μM compound, 1 mg/mL microsomes, NADPH
Procedure: Samples were prepared by adding 222.5 μL of a master solution (100 mM phosphate buffer and 1 mg/mL liver microsomes (HLM or RLM)) and 25 μL of a 10 mM NADPH solution to incubation plates, which were then warmed for 10 min. Each compound was separately dissolved in DMSO to prepare 10 mM stock solutions, which were then diluted to 100 μM with acetonitrile. A reaction was started by adding 2.5 μL of the 100 μM solution of each compound to separate incubation plates such that the final concentration of for each compound in each plate was 1 μM.
25 μL aliquots of each sample were taken at 0.5, 5, 10, 15, 20 and 30 minutes, and the reaction was stopped by adding 5 volumes of cold acetonitrile with IS (100 nM alprazolam, 200 nM caffeine and 100 nM tolbutamide). The samples were then centrifuged at 3,220 G for 30 minutes, and 100 μL of the supernatant fluid was mixed with 100 μL of ultra-pure H2O.
The samples were then analyzed by LC-MS/MS. Peak areas were determined from extracted ion chromatograms. Slope values (k) were determined by linear regression of the natural logarithm of the remaining percentage of the compound vs. incubation time curve. The in vitro half-life (in vitro t1/2) was determined from the slope value using the following equation:

[5] = target: USP1/UAF1 enzyme (Homo sapiens, UniProt O94782); experiment: USP1/UAF1 deubiquitination assay (ubiquitin-rhodamine 110 substrate); type: biochemical; conditions: read-out: USP1 IC50 (Ub-Rho)
Chain of USP1/UAF1 enzyme (O94782 whole entry): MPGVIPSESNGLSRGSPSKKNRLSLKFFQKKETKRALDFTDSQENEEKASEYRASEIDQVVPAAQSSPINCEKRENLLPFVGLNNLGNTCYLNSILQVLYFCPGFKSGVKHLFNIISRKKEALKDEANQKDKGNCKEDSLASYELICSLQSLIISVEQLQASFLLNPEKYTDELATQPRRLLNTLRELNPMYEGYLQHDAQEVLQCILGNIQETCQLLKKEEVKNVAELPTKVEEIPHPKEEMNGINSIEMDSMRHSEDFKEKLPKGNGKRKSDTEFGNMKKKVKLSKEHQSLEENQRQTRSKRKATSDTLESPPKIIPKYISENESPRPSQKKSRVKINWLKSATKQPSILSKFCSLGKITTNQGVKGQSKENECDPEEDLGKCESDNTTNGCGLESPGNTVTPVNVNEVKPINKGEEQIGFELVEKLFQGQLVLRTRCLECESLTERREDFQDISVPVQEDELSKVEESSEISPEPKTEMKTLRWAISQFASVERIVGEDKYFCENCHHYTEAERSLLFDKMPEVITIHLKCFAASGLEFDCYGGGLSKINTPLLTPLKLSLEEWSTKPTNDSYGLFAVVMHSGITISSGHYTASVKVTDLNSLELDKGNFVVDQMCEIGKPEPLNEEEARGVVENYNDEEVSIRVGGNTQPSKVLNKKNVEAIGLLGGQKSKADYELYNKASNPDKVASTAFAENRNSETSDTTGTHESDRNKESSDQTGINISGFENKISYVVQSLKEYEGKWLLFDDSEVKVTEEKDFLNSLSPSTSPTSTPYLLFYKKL
Chain of USP1/UAF1 enzyme (Q8TAF3 whole entry partner): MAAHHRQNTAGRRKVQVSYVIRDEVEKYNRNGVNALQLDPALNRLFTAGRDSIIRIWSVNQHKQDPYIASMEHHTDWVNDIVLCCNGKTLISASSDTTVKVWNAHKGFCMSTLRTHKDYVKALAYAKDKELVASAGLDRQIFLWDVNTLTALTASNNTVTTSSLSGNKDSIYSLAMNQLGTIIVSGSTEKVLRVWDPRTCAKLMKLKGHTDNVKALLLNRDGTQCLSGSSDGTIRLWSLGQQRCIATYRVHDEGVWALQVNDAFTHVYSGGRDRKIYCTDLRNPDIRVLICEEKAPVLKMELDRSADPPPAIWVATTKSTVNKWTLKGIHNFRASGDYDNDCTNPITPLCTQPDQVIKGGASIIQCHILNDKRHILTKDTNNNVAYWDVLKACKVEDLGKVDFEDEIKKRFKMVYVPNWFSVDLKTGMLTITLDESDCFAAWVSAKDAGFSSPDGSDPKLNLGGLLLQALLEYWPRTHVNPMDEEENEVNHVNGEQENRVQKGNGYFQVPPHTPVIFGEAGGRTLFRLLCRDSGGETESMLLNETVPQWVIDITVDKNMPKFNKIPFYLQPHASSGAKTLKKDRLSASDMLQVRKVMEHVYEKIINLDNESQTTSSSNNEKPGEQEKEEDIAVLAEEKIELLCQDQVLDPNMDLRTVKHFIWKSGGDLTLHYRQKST
Summary of the method: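 Cleavage of 150 nM ubiquitin-rhodamine 110 by 0.05 nM USP1/UAF1 was followed as fluorescence (Ex480/Em540, kinetic, 30 min) in Tris-HCl pH 7.8 buffer with EDTA, BSA, DTT and Tween-20. Compounds, top 10 μM, were preincubated with enzyme 10 min; % inhibition against no-enzyme and DMSO wells gave four-parameter IC50s.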

[6] = pH 2, aqueous buffer, PBS pH 2.0, 25° C., read-out: Solubility at pH 2.0
[7] = pH 7.4, aqueous buffer, PBS pH 7.4, 25° C., read-out: Solubility at pH 7.4

SMILES	solubility at 24 h [1, 6]	solubility at 24 h [1, 7]	half-life at 1 μM [2]	IC50 [3]	half-life at 1 μM [4]	IC50 [5]
COc1cccc(C)c1-c1cc2n(n1)CCCN2Cc1ccc(-c2nc(C(F)(F)F)cn2C)cc1 [Example 74, 2-(2-methoxy-6-methylphenyl)-4-(4-(1-methyl-4-(trifluoromethyl)-1H-imidazol-2-yl)benzyl)-4,5,6,7-tetrahydropyrazolo[1,5-α]pyrimidine]	≥ 10 µM	< 10 µM	< 25 min	> 500 nM	< 25 min	< 100 nM
COc1cccc(C)c1-c1cc2n(n1)CCC(=O)N2Cc1ccc(-c2nc(C(F)(F)F)cn2C)cc1 [Example 75, 2-(2-methoxy-6-methylphenyl)-4-(4-(1-methyl-4-(trifluoromethyl)-1H-imidazol-2-yl)benzyl)-6,7-dihydropyrazolo[1,5-α]pyrimidin-5(4H)-one]	≥ 10 µM	< 10 µM	< 25 min	100 to 500 nM	< 25 min	< 100 nM
COc1ncnc(C2CC2)c1-c1cc2n(n1)CCC(=O)N2Cc1ccc(-n2nc(C(F)(F)F)cc2OC)cc1 [Example 80]	< 10 µM	< 10 µM	> 25 min	100 to 500 nM	> 25 min	< 100 nM
Cc1cc(C(F)(F)F)nn1-c1ccc(CN2C(=O)CCn3nc(-c4c(Cl)cnn4C(C)C)cc32)cc1 [Example 86]	< 10 µM	< 10 µM	> 25 min	100 to 500 nM	> 25 min	< 100 nM
CC(C)n1ncc(Cl)c1-c1cc2n(n1)CCC(=O)N2Cc1ccc(-c2nc(C(F)(F)F)cn2C)cc1 [Example 98]	< 10 µM	< 10 µM	> 25 min	< 100 nM	> 25 min	< 100 nM
COc1ncnc(C2CC2)c1-c1cc2n(n1)CCC(=O)N2Cc1ccc(-n2nc(C(F)(F)F)cc2C)c(F)c1 [Example 103]	< 10 µM	< 10 µM	> 25 min	100 to 500 nM	> 25 min	< 100 nM
Cc1cc(C(F)(F)F)nn1-c1ccc(CN2C(=O)CCn3nc(-c4c(Cl)cnn4C(C)C)cc32)cc1F [Example 104]	< 10 µM	< 10 µM	> 25 min	100 to 500 nM	> 25 min	< 100 nM

Continued, values first:

solubility at 24 h [1, 6]	solubility at 24 h [1, 7]	half-life at 1 μM [2]	IC50 [3]	half-life at 1 μM [4]	IC50 [5]	SMILES
< 10 µM	< 10 µM	> 25 min	< 100 nM	> 25 min	< 100 nM	CCn1cc(C(F)(F)F)nc1-c1ccc(CN2C(=O)CCn3nc(-c4c(OC)ncnc4C4CC4)cc32)cc1F [Example 78]
< 10 µM	< 10 µM	> 25 min	< 100 nM	> 25 min	< 100 nM	CC(C)n1ncc(Cl)c1-c1cc2n(n1)CCC(=O)N2Cc1ccc(-c2nc(C(F)(F)F)cn2CCF)cc1 [Example 79]
< 10 µM	< 10 µM	> 25 min	< 100 nM	> 25 min	< 100 nM	CC(C)n1cc(C(F)(F)F)nc1-c1ccc(CN2C(=O)CCn3nc(-c4c(Cl)cnn4C(C)C)cc32)cc1 [Example 91]
< 10 µM	< 10 µM	> 25 min	< 100 nM	> 25 min	< 100 nM	COc1cc(C(F)(F)F)nn1-c1ccc(CN2C(=O)CCn3nc(-c4c(Cl)cnn4C(C)C)cc32)cc1 [Example 96]
< 10 µM	< 10 µM	> 25 min	< 100 nM	> 25 min	< 100 nM	CCn1cc(C(F)(F)F)nc1-c1ccc(CN2C(=O)CCn3nc(-c4c(Cl)cnn4C(C)C)cc32)cc1 [Example 97]

Reference: patent publication US20230219965A1 (KSQ Therapeutics, Inc., priority 2020, published 2023)
